Data: publication PMC11494886, “Discovery and design of molecular glue enhancers of CDK12–DDB1 interactions for targeted degradation of cyclin K” (RSC Chemical Biology, 2024)

Tests used:
Assay type in all cases: binding
Cdk12/CycK and DDB1ΔB = molecular target: T1, Cdk12/CycK and DDB1ΔB (Homo sapiens, UniProt Q16531+Q9NYV4, DEL396-705); test: Dynamic light scattering of SEC peak fractions; settings: SEC peak middle fractions, vs negative controls
T1 construct: the Cdk12 (714–1063)/CycK (1–267) complex and the DDB1ΔB protein; made in house; host or cells: Sf9 insect cells (MultiBacTurbo)
Protocol: To evaluate particle size distribution in liquid solution, dynamic light scattering was employed. Specifically, 10 μL fractions from the central region of peaks obtained in analytical size exclusion chromatography runs were analyzed. This analysis was performed using a DynaPro NanoStar 672 (Wyatt Technology) in a disposable DLS MicroCuvette (Wyatt Technology), while maintaining a constant temperature of 25 °C. Each measurement was conducted with an acquisition time of 3 s, and each data point depicted in the Results section represents the average of 20 individual DLS measurements. The hydrodynamic radius of the protein samples was determined using the processing and analysis software DYNAMICS.

DDB1 = molecular target: T2, DDB1 (Homo sapiens, UniProt Q16531, DEL396-705); test: Microscale thermophoresis, DDB1 without CDK12/cyclin K; settings: MST, absence of CDK12/cyclin K
T2 construct: made in house; host or cells: Spodoptera frugiperda SF9 insect cells (Bac-to-Bac)
Protocol: Finally, the capacity of small molecules to induce a ternary complex between CDK12/cyclin K and DDB1 in vitro was assessed by microscale thermophoresis (MST). […]
The gene of human DDB1 (Uniprot: Q16531) with a beta-propeller B domain deletion (ΔBPB: a.a. 396–705 deleted) was subcloned into pFastBac1 vector with an N-terminal His8-tag and a HRV 3C cleavage site (GeneScript), and the recombinant protein was expressed in Spodoptera frugiperda SF9 insect cells in sf900™ II SFM culture medium using the Bac to Bac™ baculovirus expression system (Gibco™). […]
A protocol to assess ternary binding of molecular glues with CDK12/cycK and DDB1 by MST was established using published procedures for PROTAC interaction with bromodomains and E3 ubiquitin ligases.[38] […] After 5 min incubation at room temperature, the samples were loaded in MO-K022 standard treated capillaries (NanoTemper Technologies) and measured by a Monolith NT.115 Pico instrument (NanoTemper Technologies) at 40% MST power and 20% excitation power (auto-detect) on Pico-Red detector at 22 °C. MST traces were recorded using standard parameters: 5 s MST power off, 30 s MST power on and 5 s MST power off. […]

CDK12/cyclin K + DDB1 = molecular target: T3, CDK12/cyclin K + DDB1 (Homo sapiens, UniProt Q16531+Q9NYV4, DEL396-705); test: Microscale thermophoresis, ternary complex formation; settings: MST, labeled DDB1ΔBPB + CDK12/cyclin K
T3 construct: The kinase domain of human CDK12 (Uniprot: Q9NYV4; a.a; 715–1050); GST (N, cleaved yes); made in house; host or cells: Spodoptera frugiperda SF9 insect cells (Bac-to-Bac); CDK12/cyclin K co-infected with S. cerevisiae CAK1
Protocol: Finally, the capacity of small molecules to induce a ternary complex between CDK12/cyclin K and DDB1 in vitro was assessed by microscale thermophoresis (MST). Labeled DDB1ΔBPB was combined with purified CDK12/cyclin K, and fluorescence intensity was monitored with increasing compound concentrations.
Cell pellets were harvested 48 hours post infection via centrifugation and lysed in buffer A (50 mM Tris–HCl (pH 8.0), 200 mM NaCl, 10 mM imidazole, 0.5 mM tris(2-carboxyethyl) phosphine (TCEP)) supplemented with EDTA-free Pierce™ protease inhibitor tablet (Thermo Fisher Scientific). […] The concentrated protein at 2 mg mL^−1 was flash-frozen in liquid nitrogen and stored at −80 °C.
Full-length S. cerevisiae CAK1 (Uniprot: P43568) with an N-terminal His6 tag was subcloned into pFastBac 1 vector. […] The eluted CDK12/cyclin K complex was concentrated to 2 mg mL^−1, flash-frozen in liquid nitrogen and stored at −80 °C.
A protocol to assess ternary binding of molecular glues with CDK12/cycK and DDB1 by MST was established using published procedures for PROTAC interaction with bromodomains and E3 ubiquitin ligases.[38] His8-DDB1-ΔBPB was labeled with the MO-L018 Monolith™ His-tag Labeling Kit RED-tris-NTA 2nd Generation (NanoTemper Technologies) following the instruction manual. 100 nM dye was mixed with 200 nM DDB1 in 50 mM HEPES pH 7.5, 150 mM NaCl, 5% glycerol, 0.05% Tween, and incubated at room temperature for 30 min. […] MST traces were recorded using standard parameters: 5 s MST power off, 30 s MST power on and 5 s MST power off. Measurements were taken at −1 to 0 s (cold region) and 9–10 s (hot region). Data were analyzed using a fitting function derived from the law of mass action:1 [drawing 6] where f(c) is the fluorescence signal (Fnorm) at a given ligand concentration (c), B is Fnorm of fully liganded DDB1 at high ligand concentrations, U is Fnorm of DDB1 alone at low ligand concentrations, Kd is the dissociation constant or binding affinity, cT is the final concentration of DDB1 in the assay (Fig. 3G). For normalization, the data were first transformed using eqn (2) where y is the fraction bound, followed by fitting to eqn (3) (Fig. 5B–E).2 [drawing 7] 3 [drawing 8]

T2 sequence (Q16531 with tags, fused parts or gaps DEL396-705): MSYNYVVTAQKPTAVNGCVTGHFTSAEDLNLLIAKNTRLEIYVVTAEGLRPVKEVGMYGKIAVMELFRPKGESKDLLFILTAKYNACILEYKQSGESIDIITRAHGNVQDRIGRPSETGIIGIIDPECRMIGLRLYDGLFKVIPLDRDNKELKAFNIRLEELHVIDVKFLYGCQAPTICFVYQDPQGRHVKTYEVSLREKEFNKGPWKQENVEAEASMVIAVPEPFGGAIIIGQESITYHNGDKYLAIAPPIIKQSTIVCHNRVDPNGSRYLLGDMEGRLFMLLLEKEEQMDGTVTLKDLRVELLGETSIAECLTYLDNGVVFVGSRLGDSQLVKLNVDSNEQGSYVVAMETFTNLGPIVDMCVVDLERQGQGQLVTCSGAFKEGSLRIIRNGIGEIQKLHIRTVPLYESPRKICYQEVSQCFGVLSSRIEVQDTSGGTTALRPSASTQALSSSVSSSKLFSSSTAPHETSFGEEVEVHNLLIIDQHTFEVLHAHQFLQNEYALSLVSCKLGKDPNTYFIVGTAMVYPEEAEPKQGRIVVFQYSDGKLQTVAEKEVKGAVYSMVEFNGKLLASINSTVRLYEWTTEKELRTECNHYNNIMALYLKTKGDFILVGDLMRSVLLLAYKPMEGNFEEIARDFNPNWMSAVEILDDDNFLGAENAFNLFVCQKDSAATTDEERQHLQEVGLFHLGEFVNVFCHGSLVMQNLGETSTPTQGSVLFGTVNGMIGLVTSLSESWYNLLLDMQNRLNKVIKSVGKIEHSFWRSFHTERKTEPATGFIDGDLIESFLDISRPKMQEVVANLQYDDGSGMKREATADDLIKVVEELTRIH
T3 sequence (Q16531 with tags, fused parts or gaps DEL396-705): as above
T3 sequence (Q9NYV4 715-1050, stated change not applied): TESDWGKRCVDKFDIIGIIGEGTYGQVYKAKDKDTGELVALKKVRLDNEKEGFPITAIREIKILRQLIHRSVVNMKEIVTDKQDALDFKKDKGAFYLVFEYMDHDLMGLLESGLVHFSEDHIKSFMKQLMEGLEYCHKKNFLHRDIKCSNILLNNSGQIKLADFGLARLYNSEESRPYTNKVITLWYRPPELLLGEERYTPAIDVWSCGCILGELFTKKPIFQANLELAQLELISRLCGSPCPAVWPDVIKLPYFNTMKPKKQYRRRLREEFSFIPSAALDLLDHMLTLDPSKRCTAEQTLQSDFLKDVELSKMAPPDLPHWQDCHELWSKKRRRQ
T3 sequence (O75909 11-267 partner limits assumed): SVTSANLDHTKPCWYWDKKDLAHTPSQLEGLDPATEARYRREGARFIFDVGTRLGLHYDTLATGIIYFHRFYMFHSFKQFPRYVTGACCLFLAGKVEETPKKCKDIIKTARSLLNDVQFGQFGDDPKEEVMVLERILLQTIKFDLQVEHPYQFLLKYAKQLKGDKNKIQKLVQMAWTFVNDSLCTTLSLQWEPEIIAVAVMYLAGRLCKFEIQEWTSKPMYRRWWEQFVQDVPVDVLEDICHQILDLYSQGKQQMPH
T1 sequence (Q9NYV4 714-1063, stated change not applied): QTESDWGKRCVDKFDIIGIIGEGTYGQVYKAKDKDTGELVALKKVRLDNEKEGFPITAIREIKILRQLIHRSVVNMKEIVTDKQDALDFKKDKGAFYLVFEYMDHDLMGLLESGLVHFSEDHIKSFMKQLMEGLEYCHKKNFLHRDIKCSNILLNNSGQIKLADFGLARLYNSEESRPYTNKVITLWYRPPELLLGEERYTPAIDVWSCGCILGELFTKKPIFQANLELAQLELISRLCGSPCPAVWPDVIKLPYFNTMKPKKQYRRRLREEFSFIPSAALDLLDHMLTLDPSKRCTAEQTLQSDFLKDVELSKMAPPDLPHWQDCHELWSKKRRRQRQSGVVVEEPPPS
T1 sequence (O75909 1-267 partner limits assumed): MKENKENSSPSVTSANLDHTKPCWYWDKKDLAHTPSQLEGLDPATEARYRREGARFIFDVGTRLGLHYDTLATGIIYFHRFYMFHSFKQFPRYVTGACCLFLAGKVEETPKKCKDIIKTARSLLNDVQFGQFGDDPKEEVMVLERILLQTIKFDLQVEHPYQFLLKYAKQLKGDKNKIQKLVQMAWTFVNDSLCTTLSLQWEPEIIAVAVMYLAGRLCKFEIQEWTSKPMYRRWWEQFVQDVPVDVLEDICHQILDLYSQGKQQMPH
T1 sequence (Q16531 with tags, fused parts or gaps DEL396-705): as the sequence (Q16531 with tags, fused parts or gaps DEL396-705) above

Row | Compound | hydrodynamic radius (DLS) (Cdk12/CycK and DDB1ΔB) | binding to DDB1 (DDB1) | ability to induce ternary complex (CDK12/cyclin K + DDB1)
1 | Cn1cc(-n2cnc3c(NCc4nc5cc(Cl)c(Cl)cc5[nH]4)nc(N4CCOCC4)nc32)cn1 [SR-4835] | significantly increased | did not show binding potential for DDB1 | –
2 | CN(C)C/C=C/C(=O)Nc1ccc(C(=O)N2CCC[C@@H](Nc3ncc(Cl)c(-c4c[nH]c5ccccc45)n3)C2)cc1 [THZ531, reference compound] | – | – | inability to induce such a complex
